{"source": "patent US20180133221A1", "about": "“ADMINISTRATION OF UBIQUITIN-ACTIVATING ENZYME INHIBITOR AND CHEMOTHERAPEUTIC AGENTS” (Millennium Pharmaceuticals, Inc., priority 2014, published 2018)", "key": {"[1]": {"system": "PHTX-02B breast xenograft", "experiment": "PHTX-02B xenograft model, Compound 1 and paclitaxel", "assay_type": "in vivo, SCID-NOD mice", "procedure": "Paclitaxel (Bristol-Myers Squibb Company) is formulated in 0.9% saline and administered by intravenous injection (IV) on every 4 days (Q4D) or once weekly (QW) at 10 and 20 mg/kg. […] Tumors were measured twice weekly using vernier calipers."}, "[2]": {"system": "PHTX-132Lu non-small cell lung xenograft", "conditions": "for Tumor Volume Day 21: in mm³ (unit assumed)", "excerpt": "The PHTX-132Lu non-small cell lung xenograft model was established from a patient-derived tumor collected during surgery from a person with lung cancer (Poorly Differentiated Adenocarcinoma). PHTX-132Lu tumor fragments (approximately 2×2×3 mm^3) are implanted into the subcutaneous space in the right dorsal flank of female CB-17 SCID mice (age 10 weeks, Charles River Laboratory, Wilmington, Mass.) using a 13-gauge trocar. When the mean tumor volume reached approximately 220 mm^3, the animals were randomized into 12 treatment groups (n=5/group).\n(§1) Carboplatin (Teva Pharmaceuticals) is formulated in 0.9% saline and administered by IP injection once weekly (QW) at 25, 50, 60, and 75 mg/kg. The once weekly schedule is also described as every 7 days (Q7D).\n(§2) Compound 1 [((1R,2R,3S,4R)-2,3-dihydroxy-4-(2-(3-(trifluoromethylthio)-phenyl)pyrazolo[1,5-a]pyrimidin-7-ylamino)cyclopentyl)methyl sulfamate] is formulated in 10-20% HPbCD in sterile water and administered intravenously (IV) or subcutaneously (SC) on a BIW (twice/week schedule; Monday and Thursday or Tuesday and Friday) for either 2-4 weeks.\n(§3) Tumors were measured twice weekly using vernier calipers. Tumor volumes were calculated using the standard formula V=W^2×L/2,). When mean tumor volumes reached approximately 200 mm^3 for PHTX-24C, 220 mm^3 for PHTX-Lu132, 150 mm^3 for CTG-0256, 260 mm^3 for CTG-0486, 185 mm^3 for PHTX-17C, 260 mm^3 for CTG-0165, 150 mm^3 for PHTX-14B in the study of Compound 1 and paclitaxel, 180 mm^3 for PHTX-14B in the study of Compound 1 and docetaxel, 200 mm^3 for SKOV-3, 220 mm^3 for PHTX-02B in the study of Compound 1 and docetaxel, 250 mm^3 for PHTX-02B in the study of Compound 1 and paclitaxel, 195 mm^3 for CTG-0159, 180 mm^3 for CTG-0012 or 150 mm^3 for Calu-6, mice were randomized into groups of n=5-7/arm as described in the tables below, and injected with vehicle, Compound 1 or agents (docetaxel, paclitaxel, oxaliplatin, cisplatin or carboplatin), or the combination of Compound 1 plus one of the agents, at various doses and schedules as described in tables below. Tumor size and body weight were measured approximately twice a week for the duration of the study. Mice are euthanized when their tumor volume reached 10% of their body weight, or when the average tumor volume of a treatment or control group reached approximately 2000 mm^3. Tumor growth continued to be monitored after the dosing period in some studies. Average tumor volume is reported as a function of time for selected arms of selected studies in the Figures.\n(§4) Measurements from day 0 to day 14, day 19, day 21, or day 28 are analyzed as specified in Tables below. All tumor volumes have a value of 1 added to them before log10 transformation. For each animal, the log tumor volume at day 0 is subtracted from the log tumor volume on the subsequent days. This difference vs. time is used to calculate an area under the curve (AUC) for each animal using the trapezoid rule. […] The synergy score for the combination of agents A and B is defined as\n(§5) 100*(mean(AUCAB)−mean(AUCA)−mean(AUCB)+mean(AUCctl))/mean(AUCctl):\n(§6) where AUCAB, AUCA, AUCB, and AUCctl are the AUC values for animals in the combination group, the A group, the B group, and the control group, respectively. The standard error of the synergy score is computed based on the variation in the AUC values among the animals. […] If the P-value is above 0.05, then the combination is considered to be additive. If the P-value is below 0.05, and the synergy score is less than zero, then the combination is considered to be synergistic."}, "[3]": {"system": "CTG-0486 human ovarian xenograft", "assay_type": "in vivo", "conditions": "for Tumor Volume Day 21: in mm³ (unit assumed)", "excerpt": "The CTG-0486 model of human ovarian xenograft model was established from a patient-derived tumor collected during surgery from a person with ovarian cancer (serous adenocarcinoma, metastases to the small bowel). CTG-0486 tumor fragments (approximately 2×2×3 mm^3) are implanted into the subcutaneous space in the right dorsal flank of female Mus musculus/nu/nu mice (age 6-9 weeks, Harlan Laboratories, Madison, Wis., USA) using a 13-gauge trocar needle. When the mean tumor volume reached approximately 260 mm3, the animals were randomized into 8 treatment groups (n=5/group).\n[…] The once weekly schedule is also described as every 7 days (Q7D).\nas §2, §3, §4, §5, §6"}, "[4]": {"system": "Calu-6 non-small cell lung cancer xenograft", "experiment": "Calu-6 xenograft model, Compound 1 and docetaxel", "assay_type": "in vivo, nude mice", "conditions": "for Tumor Volume Day 21: in mm³ (unit assumed)", "procedure": "Calu-6 is a non-small cell lung cancer cell-lined derived xenograft model. Nine week old female nude mice (Taconic Farms, Inc) were inoculated subcutaneously in the flank (cell suspension) with 4.0×10^6 Calu-6 cells suspended in serum free MEM. […] Docetaxel (Henry Schein, Inc., Pittsburgh Pa.) is formulated in 0.9% saline and administered by intravenous injection (IV) once weekly (QW) at 5 mg/kg or 10 mg/kg. […] Tumors were measured twice weekly using vernier calipers."}, "[5]": {"system": "SKOV-3 ovarian cell-line derived xenograft", "experiment": "SKOV-3 xenograft model, Compound 1 and carboplatin", "assay_type": "in vivo, nude mice", "conditions": "for Tumor Volume Day 14: in mm³ (unit assumed)", "procedure": "SKOV-3 is an ovarian cell-line derived xenograft. Ten week old female nude mice (Taconic Farms, Inc) were inoculated subcutaneously in flank (cell suspension) with 4.0×10^6 SKOV-3 cells suspended in serum free DMEM+Matrigel. When the mean tumor volume reached approximately 200 mm^3, the animals were randomized into 12 treatment groups (n=5/group).\nas §1, §2, §3, §4, §5, §6"}, "[6]": {"conditions": "single agent Compound 1 IV at 5, 10 and 15 mg/kg BIW"}}, "note": "Where two headings read alike, the source gives them in different places.", "data": [{"molecule": "NS(=O)(=O)OC[C@H]1C[C@@H](Nc2ccnc3cc(-c4cccc(SC(F)(F)F)c4)nn23)[C@H](O)[C@@H]1O", "note": "[Compound 1, ((1R,2R,3S,4R)-2,3-dihydroxy-4-(2-(3-(trifluoromethylthio)phenyl)pyrazolo[1,5-a]pyrimidin-7-ylamino)cyclopentyl)methyl sulfamate]", "values": [{"measurement": "Tumor Volume Day 19", "setting": "[1]; 6.25 mg/kg Compound 1 BIWx3 IV, in mm³ (unit assumed)", "value": 1850.4}, {"measurement": "anti-tumor activity compared to vehicle control", "setting": "[1]; single agent Compound 1 IV at 6.25, and 12.5 mg/kg BIW for 3 weeks", "value": "minimal to modest anti-tumor activity"}, {"measurement": "Tumor Volume Day 21", "setting": "[2]; 5 mg/kg Compound 1 BIWx3 IV", "value": 882.7}, {"measurement": "Tumor Volume Day 21", "setting": "[2]; 10 mg/kg Compound 1 BIWx3 IV", "value": 653.5}, {"measurement": "Tumor Volume Day 21", "setting": "[2]; 15 mg/kg Compound 1 BIWx3 IV", "value": 483.7}, {"measurement": "anti-tumor activity compared to vehicle control", "setting": "[2]; [6]", "value": "modest anti-tumor activity"}, {"measurement": "Tumor Volume Day 21", "setting": "[3]; 6.25 mg/kg Compound 1 BIWx3 SC", "value": 476.9}, {"measurement": "Tumor Volume Day 21", "setting": "[3]; 15 mg/kg Compound 1 BIWx3 SC", "value": 131.9}, {"measurement": "Tumor Volume Day 21", "setting": "[3]; 20 mg/kg Compound 1 BIWx3 SC", "value": 92.7}, {"measurement": "Tumor Volume Day 21", "setting": "[3]; 25 mg/kg Compound 1 BIWx3 SC", "value": 151.7}, {"measurement": "tolerability", "setting": "[3]; 20 and 25 mg/kg doses of Compound 1, SC BIW", "value": "not tolerated"}, {"measurement": "anti-tumor activity compared to vehicle control", "setting": "[3]; single agent Compound 1 SC at 6.25, 15, 20 and 25 mg/kg BIW for 3 weeks", "value": "modest to strong anti-tumor activity"}, {"measurement": "Tumor Volume Day 21", "setting": "[4]; 5 mg/kg Compound 1 BIWx3 IV", "value": 1302.2}, {"measurement": "Tumor Volume Day 21", "setting": "[4]; 10 mg/kg Compound 1 BIWx3 IV", "value": 1346.4}, {"measurement": "Tumor Volume Day 21", "setting": "[4]; 15 mg/kg Compound 1 BIWx3 IV", "value": 1072.4}, {"measurement": "anti-tumor responses compared to the vehicle control", "setting": "[4]; single agent Compound 1 IV at 5, 10 and 20 mg/kg IV BIW", "value": "modest anti-tumor responses"}, {"measurement": "Tumor Volume Day 14", "setting": "[5]; 5 mg/kg Compound 1 BIWx2 IV", "value": 857.2}, {"measurement": "Tumor Volume Day 14", "setting": "[5]; 10 mg/kg Compound 1 BIWx2 IV", "value": 883}, {"measurement": "Tumor Volume Day 14", "setting": "[5]; 15 mg/kg Compound 1 BIWx2 IV", "value": 919.2}, {"measurement": "anti-tumor activity compared to vehicle control", "setting": "[5]; [6]", "value": "modest anti-tumor activity"}]}]}
